We go through 1 molecule from US20220175717A1, “PHENPROCOUMON TTS” (LTS LOHMANN THERAPIE-SYSTEME AG, priority 2019, published 2022).

Series [1] in a line: Saturation concentration Cs of phenprocoumon in polymer matrices (sandwich method of Liu). In kind it is physicochemical. The note with it: for Cs of phenprocoumon: 7 days at room temperature. The procedure:
The saturation concentration Cs of phenprocoumon was determined in various polymer matrices according to the method of Liu (Liu, P., Gargiulo, P., Wong, J., and Novartis (1997). A Novel Method for Measuring Solubility of a Drug in an Adhesive. Pharmaceutical Research 14, p. 317). In this method, known among experts as the “sandwich” method, the saturation concentration is determined as follows: A laminate is built up with the following sequence of layers: protective film—donor layer with active substance (dissolved and undissolved)—active-substance-permeable membrane—acceptor layer without active substance—protective film. The two protective films consist of identical material; the matrix material of the donor layer and acceptor layer is also identical. The donor layer is prepared by dissolving the active substance in a solution of the polymer in organic solvent. In this process, the concentration of the active substance must be chosen to be high enough that an undissolved residue is visible in the polymer matrix, so that the saturation concentration Cs in the donor layer is safely exceeded. This solution is spread on the protective film and the process solvent is evaporated. Then, the adhesive surface of the donor layer is covered with the membrane. The membrane used is a dialysis tube made of regenerated cellulose (ZelluTrans, from Roth, 46 mm flat width), which has been cut open lengthwise. The acceptor layer is produced analogously to the donor layer without active substance and is applied to the other side of the membrane. The laminates produced in this way are then stored at room temperature for 7 days, during which diffusion of the active substance through the membrane into the acceptor layer occurs. Subsequently, the active substance concentration in the donor layer is determined. For this purpose, aliquots of approx. 1 cm^2 are punched using a punching tool with a standardised surface area. The membrane is then removed, the punched pieces without membrane are weighed, and their weight is documented (m1). Then, the punched pieces are placed in organic solvent to dissolve the matrices. The backing layers are removed, washed and dried and their weight (m2) is determined. From both measured values, the weight of the polymer portion of the […] m3 is obtained as follows: m3=m1−m2 Subsequently, the concentration of phenprocoumon is determined in the solution using HPLC, and its concentration in the donor layer is calculated. The saturation concentrations of phenprocoumon in different polymer matrices determined according to this experimental approach are summarised in Table 1: […]

The conditions of series [2]: once absorbed by the body; cited from earlier work.
The nature of series [3]: Solubility of phenprocoumon in process solvents. In kind it is physicochemical. The procedure:
Since toluene polysiloxane solution is not commercially available, BIO PSA 4201 from Dow Chemicals (polysiloxane in n-heptane) was used as starting material. The solvent was evaporated off and the rubbery polymeric residue was dissolved with enough toluene to obtain a solution with approx. 75% solids.

`CCC(c1ccccc1)c1c(O)c2ccccc2oc1=O` (stereo not drawn) [phenprocoumon, Phenprocoumon]: the Cs of phenprocoumon in series [1] (in acrylate copolymer of 2-ethylhexyl acrylate, vinyl acetate and 2-hydroxyl ethyl acrylate, ethyl acetate) stood at 6.11%; in series [1] (in acrylic copolymer of 2-ethylhexyl acrylate, butyl acrylate, vinyl acetate, acrylic acid, ethyl acetate), 7.26%; in series [1] (in polyisobutylene, polymer dissolved in toluene), 2.8%; in series [1] (in polysiloxane, ethyl acetate), 0.3%; in series [1] (in styrene-isoprene-styrene block copolymer, polymer dissolved in toluene), 3.9%. In series [1] (in neutral polymers (text summary of Table 1)), the “saturation concentration Cs of phenprocoumon” value is given as above 5%. Moreover, the biological half-life result in series [2] is given as “up to 160 hours”. Moreover, the solubility entry is recorded as “sufficiently soluble” in series [3] (in aromatic hydrocarbons) and “not in n-heptane” in series [3] (in n-heptane).
